Source: patent US9926304B2, “1-(arylmethyl)quinazoline-2,4(1H,3H)-diones as PARP inhibitors and the use thereof” (Impact Therapeutics, Inc., priority 2011, dated 2018)

Key:
[1] = test system: Human breast cancer cell line T47D; assay: Cell based caspase-3 activity assay: potentiation of MMS induced apoptosis; details: Homo sapiens, T47D, 24 h, T47D cells, 11.1 μg/ml MMS, 24 hours, intracellular caspase-3 activity; read-out: EC50 (nM), potentiation of the apoptosis inducing activity of MMS
Method in brief: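 T47D cells were exposed for 24 h to compound plus a minimally apoptotic MMS dose (medium containing 11.1 μg/ml MMS). Lysates were incubated 3 h at 37 °C with (Ac-DEVD)2-R110 caspase-3 substrate (20 μM in added buffer) and read at ex 496/em 520 nm. EC50 came from a sigmoidal fit of RFU versus log concentration.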

[2] = test system: SW620 human colorectal cancer cells; assay: MTT based cell viability assay: potentiation of the growth inhibiting activity of MMS; details: Homo sapiens, SW-620, 120 h, read-out: IC50 (nM), potentiation of the growth inhibiting activity of MMS, SW620 cells, 1.7 μg/ml MMS, 5 days (120 hours), MTT

SMILES | EC50 [1] [nM] | IC50 [2] [nM]
O=C(c1cccc(Cn2c(=O)[nH]c(=O)c3cc(Cl)ccc32)c1)N1CCN(c2ccccn2)CC1 [Example 114, 6-Chloro-1-(3-(4-(pyridin-2-yl)piperazine-1-carbonyl)benzyl)quinazoline-2,4(1H,3H)-dione] | 19 | 51
O=C(c1cccc(Cn2c(=O)[nH]c(=O)c3cc(Cl)ccc32)c1)N1CCN(C(=O)c2cccs2)CC1 [Example 115, 6-Chloro-1-(3-(4-(thiophene-2-carbonyl)piperazine-1-carbonyl)benzyl)quinazoline-2,4(1H,3H)-dione] | 23 | 19
O=C(c1ccc(F)c(Cn2c(=O)[nH]c(=O)c3cc(Cl)ccc32)c1)N1CCN(C(=O)C2CCCCC2)CC1 [Example 125, 6-Chloro-1-(3-(4-(cyclohexylcarbonyl)piperazine-1-carbonyl)-6-fluorobenzyl)quinazoline-2,4(1H,3H)-dione] | 22 | 6.7
O=C(c1cccc(Cn2c(=O)[nH]c(=O)c3c(F)cccc32)c1)N1CCN(C(=O)C2CCCCC2)CC1 [Example 129, 1-(3-(4-(Cyclohexylcarbonyl)piperazine-1-carbonyl)benzyl)-5-fluoroquinazoline-2,4(1H,3H)-dione] | 49 | 18
O=C(c1cccc(Cn2c(=O)[nH]c(=O)c3c(F)cccc32)c1)N1CCN(c2ccccn2)CC1 [Example 130, 5-Fluoro-1-(3-(4-(pyridin-2-yl)piperazine-1-carbonyl)benzyl)quinazoline-2,4(1H,3H)-dione] | 87 | 15
O=C(c1cccc(Cn2c(=O)[nH]c(=O)c3c(F)cccc32)c1)N1CCN(C(=O)c2cccs2)CC1 [Example 131, 5-Fluoro-1-(3-(4-(thiophene-2-carbonyl)piperazine-1-carbonyl)benzyl)quinazoline-2,4(1H,3H)-dione] | 20 | 17
O=C(c1cccc(Cn2c(=O)[nH]c(=O)c3cccc(F)c32)c1)N1CCN(C(=O)C2CCCCC2)CC1 [Example 138, 1-(3-(4-(Cyclohexylcarbonyl)piperazine-1-carbonyl)benzyl)-8-fluoroquinazoline-2,4(1H,3H)-dione] | 281 | 351
Cc1cccc2c1c(=O)[nH]c(=O)n2Cc1cccc(C(=O)N2CCN(c3ncccn3)CC2)c1 [Example 159, 5-Methyl-1-(3-(4-(pyrimidin-2-yl)piperazine-1-carbonyl)benzyl)quinazoline-2,4(1H,3H)-dione] | 220 | 648
Cc1cccc2c1c(=O)[nH]c(=O)n2Cc1cccc(C(=O)N2CCN(C(=O)C3CCCC3)CC2)c1 [Example 160, 1-(3-(4-(Cyclopentylcarbonyl)piperazine-1-carbonyl)benzyl)-5-methylquinazoline-2,4(1H,3H)-dione] | 261 | 394
O=C(c1cccc(Cn2c(=O)[nH]c(=O)c3ccc(Cl)cc32)c1)N1CCN(C(=O)C2CCCC2)CC1 [Example 162, 7-Chloro-1-(3-(4-(cyclopentylcarbonyl)piperazine-1-carbonyl)benzyl)quinazoline-2,4(1H,3H)-dione] | 495 | 1190
O=C(c1cc(Cn2c(=O)[nH]c(=O)c3c(F)cccc32)ccc1F)N1CCN(C(=O)C2CC2)CC1 [Example 163, 1-(3-(4-(Cyclopropylcarbonyl)piperazine-1-carbonyl)-4-fluorobenzyl)-5-fluoroquinazoline-2,4(1H,3H)-dione] | 42 | 28
O=C(c1cccc(Cn2c(=O)[nH]c(=O)c3c(F)cccc32)c1)N1CCN(C(=O)C2CCC2)CC1 [Example 165, 1-(3-(4-(Cyclobutylcarbonyl)piperazine-1-carbonyl)benzyl)-5-fluoroquinazoline-2,4(1H,3H)-dione] | 18 | 49
O=C(c1ccc(F)c(Cn2c(=O)[nH]c(=O)c3c(Cl)cccc32)c1)N1CCN(C(=O)C2CCC2)CC1 [Example 170, 5-Chloro-1-(3-(4-(cyclobutylcarbonyl)piperazine-1-carbonyl)-6-fluorobenzyl)quinazoline-2,4(1H,3H)-dione] | 43 | 120
O=C(c1ccc(F)c(Cn2c(=O)[nH]c(=O)c3c(Cl)cccc32)c1)N1CCN(C(=O)c2cccs2)CC1 [Example 171, 5-Chloro-1-(6-fluoro-3-(4-(thiophene-2-carbonyl)piperazine-1-carbonyl)benzyl)quinazoline-2,4(1H,3H)-dione] | 23 | 70
O=C(c1ccc(F)c(Cn2c(=O)[nH]c(=O)c3c(Cl)cccc32)c1)N1CCN(c2ccccn2)CC1 [Example 173, 5-Chloro-1-(6-fluoro-3-(4-(pyridin-2-yl)piperazine-1-carbonyl)benzyl)quinazoline-2,4(1H,3H)-dione] | 122 | 228
O=C(c1ccc(F)c(Cn2c(=O)[nH]c(=O)c3cc(Cl)ccc32)c1)N1CCN(c2ccccn2)CC1 [Example 174, 6-Chloro-1-(6-fluoro-3-(4-(pyridin-2-yl)piperazine-1-carbonyl)benzyl)quinazoline-2,4(1H,3H)-dione] | 37 | 94

The next molecules have a lower EC50 [1] than those just listed; values first:

EC50 [1] [nM] | IC50 [2] [nM] | SMILES
13 | 48 | O=C(c1cccc(Cn2c(=O)[nH]c(=O)c3cc(Cl)ccc32)c1)N1CCN(C(=O)C2CCC2)CC1 [Example 116, 6-Chloro-1-(3-(4-(cyclobutylcarbonyl)piperazine-1-carbonyl)benzyl)quinazoline-2,4(1H,3H)-dione]
8.8 | 42 | O=C(c1cc(Cn2c(=O)[nH]c(=O)c3cc(Cl)ccc32)ccc1F)N1CCN(c2ccccn2)CC1 [Example 120, 6-Chloro-1-(4-fluoro-3-(4-(pyridin-2-yl)piperazine-1-carbonyl)benzyl)quinazoline-2,4(1H,3H)-dione]
4.9 | 4.5 | O=C(c1cccs1)N1CCN(C(=O)c2cc(Cn3c(=O)[nH]c(=O)c4cc(Cl)ccc43)ccc2F)CC1 [Example 121, 6-Chloro-1-(4-fluoro-3-(4-(thiophene-2-carbonyl)piperazine-1-carbonyl)benzyl)quinazoline-2,4(1H,3H)-dione]
6.5 | 18 | O=C(c1ccc(F)c(Cn2c(=O)[nH]c(=O)c3cc(Cl)ccc32)c1)N1CCN(C(=O)c2cccs2)CC1 [Example 126, 6-Chloro-1-(6-fluoro-3-(4-(thiophene-2-carbonyl)piperazine-1-carbonyl)benzyl)quinazoline-2,4(1H,3H)-dione]
2.1 | 7 | O=C(c1ccccc1)N1CCN(C(=O)c2cc(Cn3c(=O)[nH]c(=O)c4c(F)cccc43)ccc2F)CC1 [Example 137, 1-(3-(4-Benzoylpiperazine-1-carbonyl)-4-fluorobenzyl)-5-fluoroquinazoline-2,4(1H,3H)-dione]
13 | 12 | O=C(c1cccc(Cn2c(=O)[nH]c(=O)c3cc(F)ccc32)c1)N1CCN(C(=O)c2cccs2)CC1 [Example 141, 6-Fluoro-1-(3-(4-(thiophene-2-carbonyl)piperazine-1-carbonyl)benzyl)quinazoline-2,4(1H,3H)-dione]
4.1 | 3.4 | O=C(c1cccs1)N1CCN(C(=O)c2cc(Cn3c(=O)[nH]c(=O)c4cc(F)ccc43)ccc2F)CC1 [Example 146, 6-Fluoro-1-(4-fluoro-3-(4-(thiophene-2-carbonyl)piperazine-1-carbonyl)benzyl)quinazoline-2,4(1H,3H)-dione]
5.2 | 18 | O=C(c1ccc(F)c(Cn2c(=O)[nH]c(=O)c3cc(F)ccc32)c1)N1CCN(C(=O)c2cccs2)CC1 [Example 151, 6-Fluoro-1-(6-fluoro-3-(4-(thiophene-2-carbonyl)piperazine-1-carbonyl)benzyl)quinazoline-2,4(1H,3H)-dione]
14 | 28 | O=C(c1ccc(F)c(Cn2c(=O)[nH]c(=O)c3c(F)cccc32)c1)N1CCN(C(=O)c2cccs2)CC1 [Example 156, 5-Fluoro-1-(6-fluoro-3-(4-(thiophene-2-carbonyl)piperazine-1-carbonyl)benzyl)quinazoline-2,4(1H,3H)-dione]
8.6 | 7.8 | O=C(c1ccc(F)c(Cn2c(=O)[nH]c(=O)c3c(F)cccc32)c1)N1CCN(C(=O)C2CCCC2)CC1 [Example 158, 1-(3-(4-(Cyclopentylcarbonyl)piperazine-1-carbonyl)-6-fluorobenzyl)-5-fluoroquinazoline-2,4(1H,3H)-dione]
2.1 | 6.2 | O=C(c1ccccc1)N1CCN(C(=O)c2cc(Cn3c(=O)[nH]c(=O)c4cc(Cl)ccc43)ccc2F)CC1 [Example 164, 6-Chloro-1-(3-(4-benzoylpiperazine-1-carbonyl)-4-fluorobenzyl)quinazoline-2,4(1H,3H)-dione]
1.6 | 4 | O=C(c1cc(Cn2c(=O)[nH]c(=O)c3c(F)cccc32)ccc1F)N1CCN(C(=O)C2CCC2)CC1 [Example 166, 1-(3-(4-(Cyclobutylcarbonyl)piperazine-1-carbonyl)-4-fluorobenzyl)-5-fluoroquinazoline-2,4(1H,3H)-dione]
5 | 5.7 | O=C(c1ccc(F)c(Cn2c(=O)[nH]c(=O)c3cc(Cl)ccc32)c1)N1CCN(C(=O)C2CCC2)CC1 [Example 167, 6-Chloro-1-(3-(4-(cyclobutylcarbonyl)piperazine-1-carbonyl)-6-fluorobenzyl)quinazoline-2,4(1H,3H)-dione]
1 | 3.4 | O=C(c1cc(Cn2c(=O)[nH]c(=O)c3cc(Cl)ccc32)ccc1F)N1CCN(C(=O)C2CCC2)CC1 [Example 169, 6-Chloro-1-(3-(4-(cyclobutylcarbonyl)piperazine-1-carbonyl)-4-fluorobenzyl)quinazoline-2,4(1H,3H)-dione]
